Results taken from patent publication US20240294545A1 (CSPC Zhongqi Pharmaceutical Technology (Shijiazhuang) Co., …, priority 2020, published 2024).
pIC50: −log10 of the molar value. Marks after values point to notes of the source that are not given here.

Key:
[1] = test system: ATM-phosphorylated KAP1; test: Intracellular ATM-phosphorylated KAP1 level, ICW assay in MCF7 cells; format: cell-based, Human; settings: Homo sapiens, light or radiation study; MCF7 cells, 2 h compound, 10 Gy irradiation, further 1 h; read-out: pKAP1 IC50
Description: 4 Inhibition on Intracellular ATM-Phosphorylated KAP1 Level by the Compounds of the Present Disclosure: ICW Assay
• Cell: Human breast cancer cell line MCF7 • Materials and reagents:
4.2 Experimental Procedures
• (1) Cell inoculation • MCF7 cells were inoculated on a 384-well plate, 10000 cells/well (25 μL/well), and cultured overnight at 37° C. with 5% CO2. • (2) Activity detection • 1) The compound was formulated into a 100 mM solution with DMSO and then sequentially diluted with a gradient of 1:3 to yield a total of 10 concentration gradients, wherein the maximum concentration was 100 μM. • 2) 25 nL of each of the compound solutions with gradient concentrations prepared in step 1) was added to each well of the cell plate (Corning #356663) by using I-DOT One, resulting in a final concentration of 100 nM (maximum dose). • 3) The cell plate containing compound was incubated at 37° C. with 5% CO2 for 2 h. After 2 h, the cell plate was irradiated with a dose of 10 Gy, and then further incubated for 1 h. • 4) 25 μL of 8% paraformaldehyde was added to each well, followed by incubating at room temperature for 20 min. • 5) The 8% paraformaldehyde was discarded, followed by adding 0.1% TrintonX-100 and incubating at room temperature for 30 min. • 6) Odessey blocking buffer was added at 50 μL/well, followed by incubating at room temperature for 1.5 h. • 7) The Odessey blocking buffer was discarded, and then a primary antibody (Phospho-KAP1, 1:2000 dilution) was added, followed by incubating overnight at 4° C. • 8) The primary antibody was removed, followed by washing with PBS+0.1% Tween 20 for 5 times. • 9) DNA dye DRAQ5 coated with a second antibody (IRDye 800CW Goat anti-Rabbit, 1:4000 dilution) was added, followed by incubating at room temperature for 1 h. • 10) The second antibody was removed, followed by washing with PBS+0.1% Tween 20 for 5 times. • 11) PBS+0.1% Tween 20 was sucked off with Odyssey. • (3) Data analysis • 1) the relative ratio of Channel 800/Channel 700 for each well was detected. • 2) % of KAP1 phosphorylation was calculated according to the following formula:
% of KAP1 phosphorylation=[(Ratiocmpd−(Ratio)Positive)/((Ratio)Vehicle−(Ratio)Positive]*100 • (Ratio)Positive: the mean value of the test values of each positive control well in the test cell plate; • (Ratio)Vehicle: the mean value of the test values of each negative control well in the test cell plate. • 3) the IC50 of each compound was calculated and the dose-effect curve was plotted: % of KAP1 phosphorylation and log of compound's concentration were fit by using Graphpad 8.0 so as to calculate the IC50.
[formula] • X: log of compound's concentration • Y: % of KAP1 phosphorylation

[2] = test system: subcutaneous xenograft tumor of human glioblastoma LN-18; test: LN-18 subcutaneous xenograft, combined with radiotherapy; format: in vivo, NOG mice; settings: compound 10 mg/kg intragastric qd × 5 + IR 1 Gy, day 17
Summary of the method: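 Female NOG mice (18–22 g) bearing subcutaneous LN-18 tumours (1.5*10^7 cells, right costal region) were grouped at 100–150 mm^3; radiotherapy followed compound dosing by 1 h. Caliper volumes twice weekly (0.5×long×short^2); TGI % derived from treated vs control mean volume changes from day 0.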

[3] = test system: intracranial murine glioma GL-261-Luc; test: Intracranial murine glioma GL-261-Luc model, combined with radiotherapy; format: in vivo, C57BL/6 mice; settings: for D17 BLI / D 17 TGI: compound 10 mg/kg intragastric qd × 5 + IR 2 Gy; for D17 BLI: day 17; for D 17 TGI: day 17, from bioluminescence
Description: 8 Efficacy Test of the Compounds of the Present Disclosure Combined with Radiotherapy in the Intracranial Murine Glioma GL-261-Luc Model
8.1 Experimental Animals: C57BL/6 Mice, SPF, Female, 19 to 22 g.
GL-261-Luc tumor cells, DMEM medium:fetal bovine serum=90%:10%, accompanied by adding […] L-Glu, 37° C., 5% CO2.
Female C57BL/6 mice were anesthetized with Shutai 50 (60 mg/mL) and thiazine (1.5 mg/mL). Buprenorphine (0.1 mg/kg) was injected subcutaneously 30 min before operation and 6 h after operation to relieve pain. The operation area was disinfected with 70% ethanol solution. A sagittal incision was made on the parietal-occipital bone of anesthetized mice with a sterile scalpel, after cleaning the exposed skull surface with 3% hydrogen peroxide solution, tumor cells were injected. After injection, the skull was cleaned with 3% hydrogen peroxide solution, dried with a sterile dry cotton swab, and the incision was sutured. The state of mice was examined continuously to ensure that mice fully recovered from anesthesia.
The inoculated mice were weighed and intraperitoneally injected with […] (150 mg/kg). After 10 min injection, the animals were anesthetized with a mixture of oxygen and isoflurane. When the animal was completely anesthetized, it was moved into the imaging room for bioluminescence detection. The bioluminescence signal of the whole animal was measured and recorded for the image.
Bioluminescence detection was performed on the second day after operation, and the tumor-bearing mice were randomly divided into groups according to the intensity of bioluminescence. The specific groups were as follows. The administration route was intragastric administration and then JR 1 h after administration.
After grouping, bioluminescence detection was performed 1 to 2 times a week, according to the bioluminescence data, tumor growth inhibitory rate was calculated as follows: TGI (%)=[1−(Ti−T0)/(Vi−V0)]×100, wherein Ti represents the mean bioluminescence data of a given treatment group on a certain day; T0 represents the mean bioluminescence data of this treatment group at the beginning of administration; Vi represents the mean bioluminescence data of the vehicle control group on a certain day (the same day as that in Ti); V0 represents the mean bioluminescence data of the vehicle control group at the beginning of administration.

Structure (SMILES)	pIC50 [1]	D 17 TGI [2]	D 17 TV (MEAN ± SD) [2]	D17 BLI [3]	D 17 TGI [3]	anti-tumor activity, in words ([3]; combined with radiotherapy, compared with AZD1390)
CC(C)n1c(=O)n(C)c2cnc3cc(F)c(-c4ccc(OCCCN5CCCCC5)nc4)cc3c21 [AZD1390, reference compound]	9.35	82.8%	294 ± 52***^# mm^3	4.90*** LOG10	124.08%	–
Cn1c(=O)n2c3c4c(c(-c5ccc(OCCCN6CCCCC6)nc5)c(F)cc4ncc31)NCC2(C)C [Example A-193, 6-fluoro-2,10,10-trimethyl-7-(6-(3-(piperidin-1-yl)propoxy)pyridin-3-yl)-2,8,9,10-tetrahydro-1H-2,4,8,10a-tetraazanaphtho[2,1,8-cde]azulen-1(2H)-one]	8.76	81.1%	310 ± 61***^# mm^3	4.94*** LOG10	122.49%	equivalent to that of AZD1390
